# Assay results reported in patent US20220289657A1, “COMPOSITION FOR PREVENTING OR TREATING BACTERIAL INFECTIOUS DISEASE COMPRISING 4-GINGEROL DERIVATIVE COMPOUND AS ACTIVE INGREDIENT” (KOREA UNIVERSITY RESEARCH AND BUSINESS FOUNDATION, SEJONG …, priority 2019, published 2022).
# Like-named read-outs stand apart in the source and are kept apart here. Marks after values point to notes of the source that are not given here.
# Tests used:
# RhlR = biological target: T1, RhlR (Pseudomonas aeruginosa, UniProt P54292); assay: cell-based; conditions: for Relative RhIR Activity (%) Agonism 100 / Relative RhIR Activity (%) Agonism 1000: Table 3; for Relative RhIR Activity (%) Agonism 1000: 1000 (μM); for remaining activity at 10 µM: read-out: Relative RhIR Activity (%) Antagonism 10, Table 3; for activity at 100 µM: read-out: Relative RhlR activity Agonism, Table 2
# T1 construct: expressed in transfected cells; host or cells: E. coli sdiA variant co-transformed with pJN105R and pSC11 (RhlA::lacZ)
# P. aeruginosa = assay: Rhamnolipid production assay; format: cell-based, Pseudomonas aeruginosa; conditions: for activity at 10 µM / activity at 100 µM: Pseudomonas aeruginosa, 24 h, Table 3; for activity at 10 µM: read-out: Relative biological activity (%) Rhamnolipid production 10; for activity at 100 µM: read-out: Relative biological activity (%) Rhamnolipid production 100
# Description: P. aeruginosa (OD 595 nm=1.0) cultured overnight was inoculated in an AB medium (1:100) with a positive control or compound (0100 μM), and incubated using a shaking culture for 24 hours at 37° C. The cell culture was centrifuged for 5 minutes at 4° C. and 12,000 g. Rhamnolipids were extracted twice by mixing 200 μL of a supernatant and 400 μL of 100% diethyl ether (JUNSEI, Tokyo, Japan). The supernatant was transferred to a new tube and evaporated. A dried sample was eluted with 20 μL of deionized water, and reacted with 180 μL of an Orcinal solution (0.19% Orcinal (Sigma-Aldrich) in 53% H2SO4). The reaction mixture was heated for 30 minutes at 80° C., and cooled for 15 minutes at room temperature. The amount of rhamnolipids was measured at OD 421 nm, and normalized in the cell culture solution at OD 595 nm using a multimode plate reader.
# Pseudomonas aeruginosa [1] = assay: Bacterial growth under static condition (OD 595 nm of suspended culture); format: cell-based; conditions: for activity at 10 µM / activity at 100 µM: Pseudomonas aeruginosa, 24 h, Table 3; for activity at 10 µM: read-out: Relative biological activity (%) Bacterial growth 10; for activity at 100 µM: read-out: Relative biological activity (%) Bacterial growth 100
# Description: (§1) Pseudomonas aeruginosa (P. aeruginosa) (OD 595 nm=1.0) was cultured overnight, and diluted in an AB medium (1:20; 300 mM NaCl, 50 mM MgSO4, 0.2% vitamin-free casamino acids, 10 mM potassium phosphate, 1 mM L-arginine, and 1% glucose, pH 7.5) together with a positive control or compound (0100 μM) in a borosilicate bottle. The resulting mixture was incubated without shaking at 37° C. for 24 hours, and to measure growth inhibition activity. OD 595 nm of the suspended culture was measured using a multimode plate reader. Biofilm cells attached to the bottle were washed twice with phosphate-buffered saline (PBS; 137 mM NaCl, 2.7 mM KCl, 10 mM Na2HPO4, and 2 mM KH2PO4, pH 7.2). Afterward, the remaining biofilm cells were stained with 0.1% crystal violet for 10 minutes, and to remove the unbound crystal violet, washed with deionized water. The crystal violet […] to the biofilm cells was eluted with 100% ethanol, and the OD of the eluted ethanol sample was measured at 545 nm using a multimode plate reader.
# Pseudomonas aeruginosa [2] = assay: Static biofilm formation assay (crystal violet); format: cell-based; conditions: for activity at 10 µM / activity at 100 µM: Pseudomonas aeruginosa, 24 h, Table 3; for activity at 10 µM: read-out: Relative biological activity (%) Biofilm formation 10; for activity at 100 µM: read-out: Relative biological activity (%) Biofilm formation 100
# Description: as §1
# LasR = biological target: T2, LasR (Pseudomonas aeruginosa, UniProt P25084); assay: QS reporter strain assay, LasR (lasI::lacZ); format: cell-based; conditions: 0.1 and 10 μM; FIG. 6C
# T2 construct: expressed in transfected cells; host or cells: E. coli DH5a co-transformed with pJN105L and pSC11 (lasI::lacZ)
# Description: For RhlR reporter strain analysis, the present invention used pJN105R (RhlR expression plasmid), anspSC11 (RhlA::lacZ fusion plasmid) and an sdiA variant co-transformed with the two plasmids. 1% of an overnight-cultured reporter strain (OD 595 nm=1.0) supplemented with 10 μg/mL gentamicin and 50 μg/mL ampicillin was cultured in a Luria-Bertani (LB) medium (Difco, Detroit, Mich., USA) with a positive control or a compound (0-1000 μM) and BHL (0-10 μM) (Sigma-Aldrich) at 37° C. for 2 hours. 0.4% arabinose (Sigma-Aldrich) was reacted with the resulting product at 37° C. for 1.5 hours. β-galactosidase activity was evaluated using a Tropix plus kit (Applied Biosystems, CA, USA), and OD 595 nm and luminescence were measured using a VICTOR x5 multimode plate reader (PerkinElmer, Waltham, Mass., USA). Relative RhlR activity was quantified by measuring luminescence at OD 595 nm. In addition, for LasR reporter strain analysis, the present invention used pJN105L (LasR expression plasmid) and pSC11 (lasI::lacZ fusion plasmid), E. coli DH5a co-transformed with the two plasmids, and OdDHL (Sigma-Aldrich).
# [3] = read-out: Relative RhIR Activity (%) Antagonism 100, Table 3, 100 (μM)
# [4] = footnotes not given, matches the 100 column of Table 3
# [5] = read-out: Relative RhlR activity Antagonism, Table 2, footnotes not given, 100 μM per Table 3, lower = stronger antagonism
# [6] = Table 2, footnotes not given, 100 μM per Table 3, lower = stronger antagonism
# [7] = Table 4, concentration not given
# T1 sequence (P54292 whole entry): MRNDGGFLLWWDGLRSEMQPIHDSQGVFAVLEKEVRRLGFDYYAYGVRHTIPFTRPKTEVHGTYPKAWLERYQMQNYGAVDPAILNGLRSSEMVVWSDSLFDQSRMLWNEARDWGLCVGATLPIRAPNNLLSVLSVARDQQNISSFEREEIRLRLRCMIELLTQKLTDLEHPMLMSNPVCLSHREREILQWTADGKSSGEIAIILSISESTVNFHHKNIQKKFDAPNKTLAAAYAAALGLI
# T2 sequence (P25084 whole entry): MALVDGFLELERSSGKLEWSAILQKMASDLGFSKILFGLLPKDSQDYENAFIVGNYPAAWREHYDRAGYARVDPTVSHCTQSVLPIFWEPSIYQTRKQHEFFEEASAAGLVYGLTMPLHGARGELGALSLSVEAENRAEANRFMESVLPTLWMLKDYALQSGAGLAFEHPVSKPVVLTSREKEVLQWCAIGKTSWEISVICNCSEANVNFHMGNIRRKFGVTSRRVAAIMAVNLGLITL
Compound,Relative RhIR Activity (%) Agonism 100 (RhlR; 100 (μM)),Relative RhIR Activity (%) Agonism 1000 (RhlR),remaining activity at 10 µM (RhlR) [%],remaining activity at 100 µM (RhlR; [3]) [%],activity at 100 µM (RhlR; [4]) [%],remaining activity at 100 µM (RhlR; [5]) [%],activity at 10 µM (P. aeruginosa) [%],activity at 100 µM (P. aeruginosa) [%],activity at 10 µM (Pseudomonas aeruginosa [1]) [%],activity at 100 µM (Pseudomonas aeruginosa [1]) [%],activity at 10 µM (Pseudomonas aeruginosa [2]; static) [%],activity at 100 µM (Pseudomonas aeruginosa [2]; static) [%],Relative RhlR activity Antagonism (RhlR; [6]),other results
"CCCC(O)CC(=O)/C=C/c1ccc(O)c(O)c1 (centres unmarked) [Compound 11k, (E)-1-(3,4-Dihydroxyphenyl)-5-hydroxyoct-1-en-3-one]",3** %,5** %,60,43,3,43,56,50,99,104,84,72,–,–
"CCCC(O)CC(=O)/C=C/c1ccc(O)c(OC)c1 (centres unmarked) [Compound 11a, (E)-5-Hydroxy-1-(4-hydroxy-3-methoxyphenyl)oct-1-en-3-one]",4** %,5** %,73,65,4,65,73,57,102,95,82,65,65** %,Relative RhIR activity (%) Agonism (RhlR; [7]): 4** %; Relative biological activity (%) Rhamnolipid production (P. aeruginosa; [7]): 67* %; Relative biological activity (%) Bacterial growth (Pseudomonas aeruginosa [1]; [7]): 101%; Relative biological activity (%) Biofilm formation (Pseudomonas aeruginosa [2]; [7]): 81* %
"CCCC(O)CC(=O)CCc1ccc(O)c(OC)c1 (centres unmarked) [Compound 12a, 5-Hydroxy-1-(4-hydroxy-3-methoxyphenyl)octan-3-one]",–,–,–,–,–,–,–,–,–,–,–,–,69** %,"LasR antagonistic activity (LasR): no LasR antagonistic activity; Relative RhlR activity Agonism (RhlR; Table 2, footnotes not given, matches the 100 column of Table 3): 4** %; IC50 (RhlR; dose-response, FIG. 6A, different concentrations (0 to 100 μM)): 218 µM"
"CCCCCC(=O)C#Cc1ccc(F)c(F)c1 [Compound 32, 1-(3,4-Difluorophenyl)oct-1-yn-3-one]",3** %,5** %,39,17,3,17,60,58,100,88,71,56,–,"effect on cell growth (in words) (Pseudomonas aeruginosa [1]; 100 PM [sic] (100 μM)): slightly inhibited; biofilm formation compared with a control (in words) (Pseudomonas aeruginosa [2]; static, 100 μM): significantly inhibited"
